Experimental data published in US20230123334A1, “AMINO LIPID COMPOUND, PREPARATION METHOD THEREFOR, AND APPLICATION THEREOF” (SHENZHEN SHENXIN BIOTECHNOLOGY CO., LTD., priority 2020, published 2023).

System: HEK293 cells
Test: Preliminary screening as DNA vectors, GFP transfection of HEK293 cells
Type: cell-based
Conditions: amino lipid/DOPE liposome with 75 ng plasmid DNA (psin-EGFP-IRES-Puro); number of GFP-expressing cells divided by total nuclei (Hoechst)
In short: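 HEK293 cells in DMEM/10% FBS transfected with 75 ng EGFP plasmid per well complexed with amino lipid/DOPE liposomes in pH 5.6 sodium acetate. Hoechst nuclear stain added 20-24 h post-transfection, then cells cultured another 20-24 h. Confocal imaging gives GFP-positive cells as % of total nuclei.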

Point of comparison: `CCCCCCCCCSc1nc(NCCN2CCCCC2)nc(SCCCCCCCC)n1` [S8S9 D4], “Absolute DNA transfection efficiency in HEK293 cells” value 13.2%. Against it:
- CCCCCCCCCCCCCCCCCCNc1nc(NCCN2CCOCC2)nc(SCCCCCCCC)n1 [S8N18 D2] — lower, 2.6%
- CCCCCCCCCCCCCCCCCCNc1nc(NCCN2CCCC2)nc(SCCCCCCCC)n1 [S8N18 D3] — lower, 6.7%
- CCCCCCCCCCCCCCCCCCNc1nc(NCCN2CCCCC2)nc(SCCCCCCCC)n1 [S8N18 D4] — lower, 0.9%
- CCCCCCCCCCCCCCCCCCNc1nc(NCCN2CCN(C)CC2)nc(SCCCCCCCC)n1 [S8N18 D5] — lower, 8.6%
- CCCCCCCCCCCCCCCCCCNc1nc(NCCCN(C)C)nc(SCCCCCCCC)n1 [S8N18 D6] — higher, 20.6%
- CCCCCCCCCCCCCCCCCCNc1nc(NCCN(CC)CC)nc(SCCCCCCCC)n1 [S8N18 D7] — lower, 4.1%
- CCCCCCCCCCCCCCCCCCNc1nc(NCCCN2CCOCC2)nc(SCCCCCCCC)n1 [S8N18 D8] — lower, 5.1%
- CCCCCCCCCCCCCCCCCCNc1nc(NCCCN2CCN(C)CC2)nc(SCCCCCCCC)n1 [S8N18 D9] — lower, 5.3%
- CCCCCCCCCCCCCCCCCCNc1nc(NCC2CCN(C)CC2)nc(SCCCCCCCC)n1 [S8N18 D10] — lower, 9.6%
- CCCCCCCCSc1nc(NCCN(C)C)nc(SCCCCCCCC)n1 [S8S8 D1] — higher, 17.9%
- CCCCCCCCSc1nc(NCCN2CCOCC2)nc(SCCCCCCCC)n1 [S8S8 D2] — higher, 17.6%
- CCCCCCCCSc1nc(NCCN2CCCC2)nc(SCCCCCCCC)n1 [S8S8 D3] — lower, 10.4%
- CCCCCCCCSc1nc(NCCN2CCCCC2)nc(SCCCCCCCC)n1 [S8S8 D4] — lower, 11.2%
- CCCCCCCCSc1nc(NCCN2CCN(C)CC2)nc(SCCCCCCCC)n1 [S8S8 D5] — lower, 10.2%
- CCCCCCCCSc1nc(NCCCN(C)C)nc(SCCCCCCCC)n1 [S8S8 D6] — lower, 5.1%
- CCCCCCCCSc1nc(NCCN(CC)CC)nc(SCCCCCCCC)n1 [S8S8 D7] — lower, 10.1%
- CCCCCCCCSc1nc(NCCCN2CCOCC2)nc(SCCCCCCCC)n1 [S8S8 D8] — higher, 13.8%
- CCCCCCCCSc1nc(NCCCN2CCN(C)CC2)nc(SCCCCCCCC)n1 [S8S8 D9] — lower, 12.1%
- CCCCCCCCSc1nc(NCC2CCN(C)CC2)nc(SCCCCCCCC)n1 [S8S8 D10] — higher, 27.9%
- CCCCCCCCCSc1nc(NCCN(C)C)nc(SCCCCCCCC)n1 [S8S9 D1] — higher, 15.6%
- CCCCCCCCCSc1nc(NCCN2CCOCC2)nc(SCCCCCCCC)n1 [S8S9 D2] — higher, 37.0%
- CCCCCCCCCSc1nc(NCCN2CCCC2)nc(SCCCCCCCC)n1 [S8S9 D3] — higher, 15.1%
- CCCCCCCCCSc1nc(NCCN2CCN(C)CC2)nc(SCCCCCCCC)n1 [S8S9 D5] — lower, 5.8%
- CCCCCCCCCSc1nc(NCCCN(C)C)nc(SCCCCCCCC)n1 [S8S9 D6] — lower, 6.3%
- CCCCCCCCCSc1nc(NCCN(CC)CC)nc(SCCCCCCCC)n1 [S8S9 D7] — higher, 29.3%
- CCCCCCCCCSc1nc(NCCCN2CCOCC2)nc(SCCCCCCCC)n1 [S8S9 D8] — higher, 16.0%
- CCCCCCCCCSc1nc(NCCCN2CCN(C)CC2)nc(SCCCCCCCC)n1 [S8S9 D9] — higher, 23.5%
- CCCCCCCCCSc1nc(NCC2CCN(C)CC2)nc(SCCCCCCCC)n1 [S8S9 D10] — higher, 27.9%
- CCCCCCCCCCSc1nc(NCCN(C)C)nc(SCCCCCCCC)n1 [S8S10 D1] — higher, 16.3%
- CCCCCCCCCCSc1nc(NCCN2CCOCC2)nc(SCCCCCCCC)n1 [S8S10 D2] — higher, 18.8%
